Data as given in patent publication US20080292584A1 (priority 2005, published 2008).
Where “and” joins values, the source holds several entries; their conditions need not be identical. Equal values may be shown once. Read-outs that look alike come from different tables or passages of the source.

What was measured:
CYP2C19 [1] = biological target: T1, CYP2C19 (Homo sapiens, UniProt P33261);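 also: CYP2C19 incubations ran for 30 minutes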
Experimental: (§2) Microsomes were prepared by differential centrifugation of liver homogenates pooled from at least ten human donors.
(§3) After a 5 minute preincubation, NADPH regenerating system (NRS) was added to initiate the reaction. CYP2A6 and CYP3A4 incubations were for 10 minutes. All other incubations were for 30 minutes.
(§4) Incubations for CYP2C8 were terminated by adding 1.0 mL of ACN, while all other incubations were terminated by adding 1.0 mL of methanol.
(§5) Vehicle control experiments were performed to establish a baseline value for enzyme activity. […] Four replicates were performed.
(§6) Two replicates were performed. […] No interference was detected in any of the metabolite assay methods used.

CYP2C19 [2] = biological target: T1, CYP2C19; test: in vitro; settings: pooled human liver microsomes, probe S-mephenytoin 50 μM (to 4′-hydroxy mephenytoin)
Experimental: as §2, §3, §4, §5, §6

CYP3A4 = CYP3A4 (Homo sapiens, UniProt P08684); settings: for Percent of VC / Specific Activity Mean ± SD: human, 10 min
Experimental: All other incubations were for 30 minutes.
(§1) Four replicates were performed.
as §1
Two replicates were performed.

CYP2D6 [3] = biological target: T2, CYP2D6 (Homo sapiens, UniProt P10635); test: Metabolism of metaxalone by expressed recombinant human CYP2D6 at 5 or 20 pmol (Example 4); settings: for percent turnover / % Turnover Mean / [metaxalone] Mean / % Turnover % / [metaxalone]: 60 min; for % Turnover % / [metaxalone]: single replicates, listed as Metaxalone
Experimental: For CYP2C9 and CYP2D6, SUPERSOMES singly-expressing different allelic variants of the cytochrome p450 isozyme were commercially available. For each of CYP2C9 and CYP2D6, only the *1 allele was tested in these experiments. […]

CYP2A6 = biological target: T3, CYP2A6 (Homo sapiens, UniProt P11509); test: Metabolism of metaxalone by expressed recombinant human CYP2A6 (Example 1); settings: 30 min;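 also: expressed P450 incubations started with NADPH regenerating system, 0.5 mL final volume, compared against metabolic negative controls, with background signal estimated from matrix controls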
T3 sequence (P11509 1-494): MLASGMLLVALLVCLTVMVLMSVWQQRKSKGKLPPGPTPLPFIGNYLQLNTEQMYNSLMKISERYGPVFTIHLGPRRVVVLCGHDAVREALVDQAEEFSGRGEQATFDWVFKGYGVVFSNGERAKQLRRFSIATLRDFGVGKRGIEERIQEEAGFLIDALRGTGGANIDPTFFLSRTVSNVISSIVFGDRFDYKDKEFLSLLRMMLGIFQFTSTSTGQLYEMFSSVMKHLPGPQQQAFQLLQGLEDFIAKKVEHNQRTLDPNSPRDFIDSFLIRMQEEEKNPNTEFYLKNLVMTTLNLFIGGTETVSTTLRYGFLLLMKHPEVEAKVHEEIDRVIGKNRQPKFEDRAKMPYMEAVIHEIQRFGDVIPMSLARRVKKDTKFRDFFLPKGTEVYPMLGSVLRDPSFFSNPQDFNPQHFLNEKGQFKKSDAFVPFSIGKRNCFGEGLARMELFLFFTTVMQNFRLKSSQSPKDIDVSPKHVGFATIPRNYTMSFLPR
Experimental: (§7) Commercially available microsomes from baculovirus-infected insect cells containing singly-expressed recombinant wild-type (*1 allele) human CYP enzymes and cDNA-expressed human cytochrome p450 oxidoreductase [BD SUPERSOMES Enzymes; BD Biosciences Discovery Labware (Woburn, Mass.)] were used.
(§8) After a 5-minute pre-incubation, an NADPH regenerating system (NRS) was added to the incubation mixtures to initiate reactions, with a final incubation volume of 0.5 mL. Incubations were continued for 30 minutes, and then terminated, except for those for CYP2C19, which were incubated for 36 minutes prior to termination.
(§9) Matrix controls were performed to determine the background signal from the matrix components (microsomes (10 pmol p450), 01N Tris buffer, NRS, and 1% methanol). […] After a 5-minute pre-incubation, 2% sodium bicarbonate solution was added to the incubation mixtures. Incubation was for 30 minutes at a final volume of 0.5 mL. Matrix and metabolic negative controls were terminated by adding an equal volume of methanol. […] Analysis of samples was subsequent to storage at −70° C.

CYP2E1 = CYP2E1 (Homo sapiens, UniProt P05181); test: Metabolism of metaxalone by expressed recombinant human CYP2E1 at 5 or 20 pmol (Example 4); settings: for percent turnover / % Turnover Mean / [metaxalone] Mean / % Turnover % / [metaxalone]: 60 min; for % Turnover % / [metaxalone]: single replicates, listed as Metaxalone
CYP2D6 [4] = biological target: T2, CYP2D6; test: Metabolism of metaxalone by expressed recombinant human CYP2D6 (Example 1); settings: 30 min;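 also: reactions in 0.5 mL were started by adding an NADPH regenerating system after 5 min preincubation, with background signal estimated from controls containing only matrix components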
Experimental: as §7, §8, §9

[5] = 400 mg oral dosage form; humans; cited from earlier work
[6] = 0.75 μM metaxalone, 5 pmol CYP450
[7] = 0.75 μM metaxalone, 20 pmol CYP450
[8] = 0.75 μM metaxalone, 20 pmol cyp
[9] = 7.5 μM metaxalone, 5 pmol CYP450
[10] = 7.5 μM metaxalone, 20 pmol CYP450

CYP2E1, sequence (P05181 whole entry): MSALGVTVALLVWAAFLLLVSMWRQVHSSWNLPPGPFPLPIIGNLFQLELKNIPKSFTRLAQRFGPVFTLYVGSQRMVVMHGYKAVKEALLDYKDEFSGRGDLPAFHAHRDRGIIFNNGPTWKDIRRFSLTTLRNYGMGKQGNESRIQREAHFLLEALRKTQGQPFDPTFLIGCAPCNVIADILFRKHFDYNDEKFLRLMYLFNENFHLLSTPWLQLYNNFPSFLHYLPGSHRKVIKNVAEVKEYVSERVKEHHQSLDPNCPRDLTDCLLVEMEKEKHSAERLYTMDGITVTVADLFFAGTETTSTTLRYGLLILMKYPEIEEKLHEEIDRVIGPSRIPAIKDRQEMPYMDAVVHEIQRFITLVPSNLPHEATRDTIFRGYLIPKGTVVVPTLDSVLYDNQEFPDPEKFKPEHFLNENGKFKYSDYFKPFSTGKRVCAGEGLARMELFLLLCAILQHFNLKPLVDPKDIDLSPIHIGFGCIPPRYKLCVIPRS
T1 sequence (P33261 whole entry): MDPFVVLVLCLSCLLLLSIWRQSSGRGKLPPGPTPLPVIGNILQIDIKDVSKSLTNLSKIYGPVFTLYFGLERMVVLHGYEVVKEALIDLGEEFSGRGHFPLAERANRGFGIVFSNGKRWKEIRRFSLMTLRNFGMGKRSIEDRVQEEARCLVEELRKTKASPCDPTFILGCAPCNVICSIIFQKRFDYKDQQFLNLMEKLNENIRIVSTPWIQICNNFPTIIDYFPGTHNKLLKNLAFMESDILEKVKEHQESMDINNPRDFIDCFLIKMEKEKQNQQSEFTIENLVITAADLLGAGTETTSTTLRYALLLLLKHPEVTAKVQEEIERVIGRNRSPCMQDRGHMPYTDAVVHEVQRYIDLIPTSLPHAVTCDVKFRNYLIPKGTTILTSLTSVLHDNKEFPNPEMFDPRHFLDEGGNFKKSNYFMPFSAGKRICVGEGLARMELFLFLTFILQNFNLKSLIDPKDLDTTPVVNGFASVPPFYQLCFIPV
T2 sequence (P10635 whole entry): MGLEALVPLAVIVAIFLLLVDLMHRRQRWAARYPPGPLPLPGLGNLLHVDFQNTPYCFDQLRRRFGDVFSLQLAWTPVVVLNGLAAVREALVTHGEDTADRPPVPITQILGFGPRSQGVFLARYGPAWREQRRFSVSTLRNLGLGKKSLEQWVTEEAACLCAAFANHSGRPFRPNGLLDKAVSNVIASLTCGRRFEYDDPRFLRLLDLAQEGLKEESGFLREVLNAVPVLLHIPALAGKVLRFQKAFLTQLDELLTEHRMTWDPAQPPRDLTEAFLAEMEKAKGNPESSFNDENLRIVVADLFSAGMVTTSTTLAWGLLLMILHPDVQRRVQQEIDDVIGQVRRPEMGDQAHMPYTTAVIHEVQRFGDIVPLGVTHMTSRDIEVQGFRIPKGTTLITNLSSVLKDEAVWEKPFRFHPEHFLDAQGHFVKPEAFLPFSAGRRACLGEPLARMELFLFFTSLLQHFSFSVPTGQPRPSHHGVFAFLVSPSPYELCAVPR
CYP3A4, sequence (P08684 whole entry): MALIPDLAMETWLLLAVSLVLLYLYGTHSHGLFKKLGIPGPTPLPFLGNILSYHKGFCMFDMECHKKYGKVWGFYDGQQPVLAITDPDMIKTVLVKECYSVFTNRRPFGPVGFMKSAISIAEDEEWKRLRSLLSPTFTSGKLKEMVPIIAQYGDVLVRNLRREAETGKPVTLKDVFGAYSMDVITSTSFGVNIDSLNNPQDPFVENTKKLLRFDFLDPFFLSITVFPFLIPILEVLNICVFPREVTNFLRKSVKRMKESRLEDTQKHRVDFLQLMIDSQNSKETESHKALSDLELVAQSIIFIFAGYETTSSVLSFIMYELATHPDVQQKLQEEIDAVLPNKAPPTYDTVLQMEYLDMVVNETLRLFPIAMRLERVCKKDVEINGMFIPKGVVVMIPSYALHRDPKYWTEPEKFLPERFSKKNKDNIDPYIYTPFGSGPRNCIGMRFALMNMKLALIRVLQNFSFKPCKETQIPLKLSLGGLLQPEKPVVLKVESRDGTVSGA

## Cc1cc(C)cc(OCC2CNC(=O)O2)c1 (centres unmarked) [metaxalone, 5-[(3,5-dimethylphenoxy)methyl]-2-oxazolidinone]
CYP2C19 [1]; 0.3-100 μM metaxalone, p≦0.05
  inhibition of CYP activity at a statistically significant level: inhibited
CYP2C19 [1]; CYP isozyme 2C19, summary of studies
  Inhibitor: +
CYP2C19 [1]; metaxalone 0.3 μM
  Percent of VC: 84.6%
  Specific Activity Individual: 19.4 pmol/min/mg protein and 18.9 pmol/min/mg protein
  Specific Activity Mean ± SD: 19.0 ± 0.399 pmol/min/mg protein
CYP2C19 [1]; metaxalone 1 μM
  Percent of VC: 67.0%
  Specific Activity Individual: 14.8 pmol/min/mg protein
  Specific Activity Mean ± SD: 15.0 ± 0.186 pmol/min/mg protein
CYP2C19 [1]; metaxalone 3 μM
  Percent of VC: 67.7%
  Specific Activity Individual: 15.5 pmol/min/mg protein and 14.8 pmol/min/mg protein
  Specific Activity Mean ± SD: 15.2 ± 0.317 pmol/min/mg protein
CYP2C19 [1]; metaxalone 30 μM
  Percent of VC: 63.8%
  Specific Activity Individual: 11.1 pmol/min/mg protein and 16.5 pmol/min/mg protein and 15.3 pmol/min/mg protein
  Specific Activity Mean ± SD: 14.3 ± 2.82 pmol/min/mg protein
CYP2C19 [1]; metaxalone 100 μM
  Percent of VC: 64.9%
  Specific Activity Individual: 14.5 pmol/min/mg protein and 14.8 pmol/min/mg protein and 14.3 pmol/min/mg protein
  Specific Activity Mean ± SD: 14.5 ± 0.274 pmol/min/mg protein
CYP2C19 [2]
  inhibition at 30 min, 100 μM: 35.1%
CYP3A4
  Inhibitor: +
CYP3A4; 0.3 μM
  Percent of VC: 87.1%
  Specific Activity Mean ± SD: 517 ± 10.4 pmol/min/mg protein
CYP3A4; 1 μM
  Percent of VC: 88.1%
  Specific Activity Mean ± SD: 523 ± 2.83 pmol/min/mg protein
CYP3A4; 3 μM
  Percent of VC: 90.0%
  Specific Activity Mean ± SD: 534 ± 3.36 pmol/min/mg protein
CYP3A4; 30 μM
  Percent of VC: 85.2%
  Specific Activity Mean ± SD: 506 ± 29.6 pmol/min/mg protein
CYP3A4; 100 μM
  Percent of VC: 80.3%
  Specific Activity Mean ± SD: 477 ± 36.3 pmol/min/mg protein
CYP2D6 [3]; [6]
  percent turnover: 9.9%
CYP2D6 [3]; 0.75 μM metaxalone, 5 pmol cyp
  % Turnover Mean: 9.9%
  [metaxalone] Mean: 0.642 µM
  % Turnover %: 8.8% and 11.6% and 9.1%
  [metaxalone]: 0.649 µM and 0.629 µM and 0.647 µM
CYP2D6 [3]; [7]
  percent turnover: 19.5%
CYP2D6 [3]; [8]
  % Turnover Mean: 19.5%
  [metaxalone] Mean: 0.573 µM
  % Turnover %: 23.3% and 16.7% and 18.5%
  [metaxalone]: 0.546 µM and 0.593 µM and 0.581 µM
CYP2D6 [3]; [9]
  percent turnover: 12.6%
CYP2D6 [3]; 7.5 μM metaxalone, 5 pmol cyp
  % Turnover Mean: 12.6%
  [metaxalone] Mean: 6.74 µM
  % Turnover %: 10.7% and 12.5% and 14.5%
  [metaxalone]: 6.89 µM and 6.75 µM and 6.60 µM
CYP2D6 [3]; [10]
  percent turnover: 24.9%
CYP2D6 [3]; 7.5 μM metaxalone, 20 pmol cyp
  % Turnover Mean: 24.9%
  [metaxalone] Mean: 5.79 µM
  % Turnover %: 23.9% and 23.5% and 27.3%
  [metaxalone]: 5.87 µM and 5.90 µM and 5.61 µM
CYP2D6 [3]; CYP isozyme 2D6, summary of studies
  Substrate: +
CYP2A6; metaxalone 0.5 μM
  Metaxalone Present Adjusted Individual: 0.309 µM and 0.302 µM and 0.285 µM
  Metaxalone Present Adjusted Mean ± SD: 0.299 ± 0.0124 µM
  Metaxalone Present Raw: 0.1546 µM and 0.1511 µM and 0.1425 µM
  Percent of Metabolic Negative Control Individual: 99.5% and 97.2% and 91.7%
  Percent of Metabolic Negative Control Mean ± SD: 96.1 ± 3.99%
CYP2A6; metaxalone 2.5 μM
  Metaxalone Present Adjusted Individual: 1.58 µM and 1.60 µM and 1.65 µM
  Metaxalone Present Adjusted Mean ± SD: 1.61 ± 0.0373 µM
  Metaxalone Present Raw: 0.7913 µM and 0.7979 µM and 0.8264 µM
  Percent of Metabolic Negative Control Individual: 104% and 105% and 109%
  Percent of Metabolic Negative Control Mean ± SD: 106 ± 2.46%
CYP2A6; metaxalone 25 μM
  Metaxalone Present Adjusted Individual: 15.5 μM and 15.7 μM (2×)
  Metaxalone Present Adjusted Mean ± SD: 15.6 ± 0.0975 µM
  Metaxalone Present Raw: 7.764 µM and 7.85 µM and 7.846 µM
  Percent of Metabolic Negative Control Individual: 101% and 102% (2×)
  Percent of Metabolic Negative Control Mean ± SD: 102 ± 0.636%
CYP2E1; [6]
  percent turnover: 11.3%
CYP2E1; 0.75 μM metaxalone, 5 pmol cyp
  % Turnover Mean: 11.3%
  [metaxalone] Mean: 0.631 µM
  % Turnover %: 2.7% and 15.1% and 16.3%
  [metaxalone]: 0.693 µM and 0.604 µM and 0.596 µM
CYP2E1; [7]
  percent turnover: 16.2%
CYP2E1; [8]
  % Turnover Mean: 16.2%
  [metaxalone] Mean: 0.597 µM
  % Turnover %: 14.6% and 12.6% and 21.3%
  [metaxalone]: 0.608 µM and 0.622 µM and 0.560 µM
CYP2E1; [9]
  percent turnover: 18.4%
CYP2E1; 7.5 μM metaxalone, 5 pmol cyp
  % Turnover Mean: 18.4%
  [metaxalone] Mean: 6.29 µM
  % Turnover %: 16.9% and 16.7% and 21.7%
  [metaxalone]: 6.41 µM and 6.42 µM and 6.04 µM
CYP2E1; [10]
  percent turnover: 17.2%
CYP2E1; 7.5 μM metaxalone, 20 pmol cyp
  % Turnover Mean: 17.2%
  [metaxalone] Mean: 6.39 µM
  % Turnover %: 18.0% and 19.0% and 14.5%
  [metaxalone]: 6.33 µM and 6.25 µM and 6.60 µM
CYP2E1; CYP isozyme 2E1, summary of studies
  Substrate: +
CYP2D6 [4]; metaxalone 0.5 μM
  Metaxalone Present Adjusted Individual: 0.374 µM and 0.297 µM and 0.286 µM
  Metaxalone Present Adjusted Mean ± SD: 0.319 ± 0.0477 µM
  Metaxalone Present Raw: 0.1868 µM and 0.1486 µM and 0.1431 µM
  Percent of Metabolic Negative Control Individual: 128% and 102% and 98.0%
  Percent of Metabolic Negative Control Mean ± SD: 109 ± 16.3%
CYP2D6 [4]; metaxalone 2.5 μM
  Metaxalone Present Adjusted Individual: 1.52 µM and 1.54 µM and 1.53 µM
  Metaxalone Present Adjusted Mean ± SD: 1.53 ± 0.0111 µM
  Metaxalone Present Raw: 0.7583 µM and 0.7685 µM and 0.767 µM
  Percent of Metabolic Negative Control Individual: 96.9% and 98.2% and 98.0%
  Percent of Metabolic Negative Control Mean ± SD: 97.7 ± 0.707%
CYP2D6 [4]; metaxalone 25 μM
  Metaxalone Present Adjusted Individual: 19.1 µM and 19.7 µM and 18.9 µM
  Metaxalone Present Adjusted Mean ± SD: 19.2 ± 0.436 µM
  Metaxalone Present Raw: 9.526 µM and 9.845 µM and 9.429 µM
  Percent of Metabolic Negative Control Individual: 99.2% and 103% and 98.2%
  Percent of Metabolic Negative Control Mean ± SD: 99.9 ± 2.27%
[5]
  observed increase of extent of absorption (AUC0-inf) with food relative to fasted treatment: 115.4%
  observed increase of extent of absorption (AUC0-t) with food relative to fasted treatment: 123.5%
  observed increase of peak plasma concentration (Cmax) with food relative to fasted treatment: 177.5%
